Patent US20160346266A1, “REDUCTION OR PREVENTION OF ALCOHOL REACTION WITH DIETARY SUPPLEMENTS” (NOGLO LLC, priority 2012, published 2016)

What was measured:
glutathione = conditions: supplementation, two weeks; cited from earlier work
NAD = conditions: nicotinamide supplementation; one study; cited from earlier work
[1] = tested on: volunteers who experience all symptoms of the alcohol reaction; assay: Studies in individuals (Example 5): symptoms of the alcohol reaction after two standard alcohol beverages; format: in vivo, human; conditions: Subject 4; 1500 mg daily for two weeks + dose one hour before two standard alcohol beverages
Experimental: In order to evaluate the efficacy of certain embodiments of the invention, subjects took various forms of the supplements daily for two weeks. The subjects then consumed two standard alcohol beverages and their symptoms were evaluated. One hour prior to drinking the alcohol beverages, the subjects also consumed another dose of the formulation. Overt physical symptoms and self-reported physical symptoms were used as assessments for the alcohol reaction. These experimental tests include eleven subjects. All experimental subjects were unpaid volunteers who experience all symptoms of the alcohol reaction. The following symptoms were assessed: facial redness, heart rate, self-evaluated body temperature, headache, nausea, and general physical discomfort. These are symptoms of the alcohol reaction that have all been directly linked with an increase in blood acetaldehyde.

In the case of `O=C1O[C@H]([C@@H](O)CO)C(O)=C1O` [Vitamin C], the “increase levels of glutathione” value (glutathione) is given as 50%.
For `NC(=O)c1cccnc1` [nicotinamide], the “raising NAD concentrations” value (NAD) is given as 24 fold, the facial redness [1] is given as “reductions” and the heart rate [1] is given as “reductions”.
